Laboratory results as given in patent publication US20230098667A1, “BENZODIAZEPINE DERIVATIVES, COMPOSITIONS, AND METHODS FOR TREATING COGNITIVE IMPAIRMENT” (priority 2019, published 2023).
Entries after “also recorded” stand apart in the source; their conditions may differ.

What was measured:
[1] = target: T1, GABAA receptors α5β3γ2 (GABA α5) (Homo sapiens, UniProt P18507+P31644); experiment: Binding activity on GABAAR: inhibition of [3H]Ro15-1788 binding, membranes of Ltk cells; conditions: α5β3γ2 Ltk cell membranes
T1 construct: membranes
T1 sequence (P31644 32-462): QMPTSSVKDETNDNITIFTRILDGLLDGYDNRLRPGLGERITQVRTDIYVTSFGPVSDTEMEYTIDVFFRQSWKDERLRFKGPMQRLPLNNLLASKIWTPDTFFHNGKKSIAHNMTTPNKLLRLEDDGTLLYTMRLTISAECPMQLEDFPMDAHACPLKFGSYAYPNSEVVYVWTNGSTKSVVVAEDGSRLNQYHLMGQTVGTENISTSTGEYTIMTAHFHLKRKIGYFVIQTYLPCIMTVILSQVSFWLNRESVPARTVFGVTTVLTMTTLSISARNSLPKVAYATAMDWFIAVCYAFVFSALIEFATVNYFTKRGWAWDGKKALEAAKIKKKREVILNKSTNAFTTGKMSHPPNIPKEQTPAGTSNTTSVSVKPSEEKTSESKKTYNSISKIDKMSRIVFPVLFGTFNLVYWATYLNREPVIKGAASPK
T1 sequence (P28472 26-473 partner): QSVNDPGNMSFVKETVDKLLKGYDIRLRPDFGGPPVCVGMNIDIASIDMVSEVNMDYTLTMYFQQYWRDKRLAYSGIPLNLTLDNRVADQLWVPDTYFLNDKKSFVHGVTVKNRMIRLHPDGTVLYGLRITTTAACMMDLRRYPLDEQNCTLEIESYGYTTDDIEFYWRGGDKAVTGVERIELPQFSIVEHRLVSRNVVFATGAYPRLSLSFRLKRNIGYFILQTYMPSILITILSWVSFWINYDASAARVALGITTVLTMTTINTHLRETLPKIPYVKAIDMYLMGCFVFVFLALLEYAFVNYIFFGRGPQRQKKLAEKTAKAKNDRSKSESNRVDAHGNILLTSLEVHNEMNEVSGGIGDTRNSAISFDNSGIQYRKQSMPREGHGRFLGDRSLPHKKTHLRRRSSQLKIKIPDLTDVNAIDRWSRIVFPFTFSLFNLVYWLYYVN
T1 sequence (P18507 40-467 limits assumed): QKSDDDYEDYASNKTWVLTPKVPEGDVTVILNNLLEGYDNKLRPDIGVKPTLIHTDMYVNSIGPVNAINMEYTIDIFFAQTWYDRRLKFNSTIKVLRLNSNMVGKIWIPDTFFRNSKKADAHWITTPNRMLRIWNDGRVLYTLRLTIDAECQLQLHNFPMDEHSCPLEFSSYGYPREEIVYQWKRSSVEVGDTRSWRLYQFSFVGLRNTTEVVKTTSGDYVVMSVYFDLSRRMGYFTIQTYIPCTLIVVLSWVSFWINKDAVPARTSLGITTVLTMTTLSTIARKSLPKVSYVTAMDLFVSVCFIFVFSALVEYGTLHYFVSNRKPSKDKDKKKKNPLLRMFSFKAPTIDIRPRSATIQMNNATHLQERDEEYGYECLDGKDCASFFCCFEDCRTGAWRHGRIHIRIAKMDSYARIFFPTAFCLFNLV
Description: Tissue culture and Membrane Preparation: The binding was performed on Ltk cells stably expressing GABAA receptors: α1β1γ2, α2β3γ2, α3β3γ2 and α5β3γ2 (provided by Merck Co., NJ, USA). Cells were seeded in 100 mm culture plates in DMEM/F12 medium containing 10% serum and antibiotics in 5% CO2 and allowed to grow for 1-2 days. GABAAR expression was then induced by dexamethasone as follows: 0.5 μM for 1 day for α5 containing and 2 μM for 3 days for α1, α2 and α3 containing GABAARs. After induction, cells were collected by scraping into Dulbecco's Phosphate buffered saline (DPBS, pH 7.4, Invitrogen, Carlsbad, Calif., USA) and centrifuged at 150×g for 10 min. The pellet was washed twice by re-suspension and centrifugation. The cell pellets from at least 5 different preps were combined, suspended in the binding assay buffer (50 mM KH2PO4; 1 mM EDTA; 0.2 M KCl, pH 7.4) and membranes prepared by sonication (3-5 times, 30 sec) using Branson Sonifier 150 (G. Heinmann, Germany). Protein content was determined using BCA assay (Bio-Rad Labs, Reinach, Switzerland) with Bovine Serum Albumin (Sigma Aldrich, St. Louis, Mo., USA) as the standard. Aliquots were prepared and stored at −20° C. for further use in binding assays.
Ligand Binding: Saturation binding curves were obtained by incubating membranes with increasing concentrations (0.01-8 nM) of [^3H]Rol5-1788 (Flumazepil, 75-85 Ci/mmol, PerkinElmer, MA, USA), with nonspecific binding measured in the presence of 10 μM diazepam.
All binding assays were performed for 1 h at 4° C. in assay buffer. The total assay volume was 0.5 ml containing 0.2 mg/ml protein for α5 and 0.4 mg/ml for α1, α2, and α3 containing GABAAR membranes. Incubations were terminated by filtration through GF/B filters using a 24-Cell Harvestor (Brandel, Gaithersburg, Md., USA) followed by 3 washes with ice-cold assay buffer. Filters were transferred to scintillation vials, 5 ml scintillation liquid added, vortex-mixed and kept in dark. Next day, radioactivity was obtained using a scintillation counter (Beckman Coulter, Brea, Calif., USA). All assays were performed in triplicate.
Data Analyses: Saturation and inhibition curves were obtained using GraphPad Prism software (GraphPad Software, Inc., CA, USA).

aged-impaired (AI) rats [2] = experiment: Radial Arm Maze (RAM) behavioral task, four-hour delay; assay type: in vivo, rat
Description: The same experiment was repeated using the same vehicle control and doses of ethyl 3-methoxy-7-methyl-9H-benzo[f]imidazo[1,5-a][1,2,4]triazolo[4,3-d][1,4]diazepine-10-carboxylate, where the vehicle control was tested 5 times, the 3 mg/kg dose of ethyl 3-methoxy-7-methyl-9H-benzo[f]imidazo[1,5-a][1,2,4]triazolo[4,3-d][1,4]diazepine-10-carboxylate was tested 4 times, and the other doses of ethyl 3-methoxy-7-methyl-9H-benzo[f]imidazo[1,5-a][1,2,4]triazolo[4,3-d][1,4]diazepine-10-carboxylate were tested twice.
Parametric statistics (paired t-tests) was used to compare the retention test performance of the AI rats in the four-hour delay version of the RAM task in the context of different doses of ethyl 3-methoxy-7-methyl-9H-benzo[f]imidazo[1,5-a][1,2,4]triazolo[4,3-d][1,4]diazepine-10-carboxylate and vehicle control (see FIG. 5).

GABAA α5 receptor = target: T2, GABAA α5 receptor (Rattus norvegicus, UniProt P19969); experiment: GABAA α5 receptor occupancy with Ro 15-4513 tracer; assay type: in vivo, Long Evans rats; conditions: i.v.
T2 construct: from tissue; host or cells: brain of living Long Evans rats; hippocampus and cerebellum dissected after i.v. dosing
T2 sequence (P19969 32-464 limits assumed): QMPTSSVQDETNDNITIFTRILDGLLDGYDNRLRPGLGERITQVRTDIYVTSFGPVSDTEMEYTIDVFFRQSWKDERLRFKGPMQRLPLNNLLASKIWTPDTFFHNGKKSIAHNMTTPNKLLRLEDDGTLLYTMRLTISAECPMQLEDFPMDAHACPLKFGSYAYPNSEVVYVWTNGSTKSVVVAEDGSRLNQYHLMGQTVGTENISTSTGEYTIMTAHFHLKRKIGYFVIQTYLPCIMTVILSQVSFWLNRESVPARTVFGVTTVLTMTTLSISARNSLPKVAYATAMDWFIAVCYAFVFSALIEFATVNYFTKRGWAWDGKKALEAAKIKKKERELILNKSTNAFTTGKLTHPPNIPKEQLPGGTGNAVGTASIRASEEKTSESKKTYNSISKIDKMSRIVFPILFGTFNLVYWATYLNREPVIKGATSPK
From the text: Food and water were available ad libitum.

aged-impaired (AI) rats [3] = experiment: Morris water maze behavioral task; assay type: in vivo, rat; conditions: 100 μg ICV
Description: The effects of 6,6 dimethyl-3-(3-hydroxypropyl)thio-1-(thiazol-2-yl)-6,7-dihydro-2-benzothiophen-4(5H)-one on the in vivo spatial memory retention of aged-impaired (AI) rats were assessed in a Morris water maze behavioral task. A water maze is a pool surrounded with a novel set of patterns relative to the maze.
Cognitively impaired aged rats were implanted unilaterally with a cannula into the lateral ventricle. Stereotaxic coordinates were 1.0 mm posterior to bregma, 1.5 mm lateral to midline, and 3.5 mm ventral to the skull surface. After about a week of recovery, the rats were pre-trained in a water maze for 2 days (6 trials per day) to locate a submerged escape platform hidden underneath the surface of the pool, in which the escape platform location varied from day to day. No intracerebroventricular (ICV) infusion was given during pre-training.
After pre-training, rats received ICV infusion of either 100 μg 6,6 dimethyl-3-(3-hydroxypropyl)thio-1-(thiazol-2-yl)-6,7-dihydro-2-benzothiophen-4(5H)-one (n=6) in 5 μl DMSO or vehicle DMSO (n=5) 40 min prior to water maze training and testing. Training consisted of 8 trials per day for 2 days where the hidden escape platform remained in the same location. Rats were given 60 seconds to locate the platform with a 60 seconds inter-trial interval. The rats were given a probe test (120 seconds) 24 hr. after the end of training where the escape platform was removed. During the training, there were 4 blocks, where each block had 4 training trials.
During a test trial 24 hr. after training, the escape platform was removed. The search/swim pattern of the rats was used to measure whether the rats remember where the escape platform was located during pre-trial training in order to test for the long-term memory of the rats. In this trial, “target annulus” is a designated area 1.5 times the size of the escape platform around the area where the platform was located during pre-trial training. “Opposite annulus” is a control area of the same size as the size of the target annulus, which is located opposite to the target annulus in the pool. If the rats had good long term memory, they would tend to search in the area surrounding the location where the platform was during the pre-trial training (i.e., the “target” annulus; and not the “opposite” annulus). “Time in annulus” is the amount of time in seconds that the rat spent in the target or opposite annulus area. “Number (#) of crossings” in annulus is the number of times the rat swam across the target or opposite annulus area.

[4] = probe test 24 hr. after training

COCc1nnn2c1Cc1c(C#Cc3cnc(C)n3C)ncn1-c1ccc(Cl)cc1-2 [Compound 740]
Ki [1]: < 100 nM

CCOC(=O)c1ncn2c1Cn1c(C)nnc1-c1cc(OC)ccc1-2 [ethyl 3-methoxy-7-methyl-9H-benzo[f]imidazo[1,5-a][1,2,4]triazolo[4,3-d][1,4]diazepine-10-carboxylate]
memory performance relative to vehicle control (aged-impaired (AI) rats [2]; 3 mg/kg): significantly improved memory performance
memory performance relative to vehicle control (aged-impaired (AI) rats [2]; 10 mg/kg): significantly improved memory performance
effect on Ro 15-4513 binding in hippocampus and cerebellum (GABAA α5 receptor; 0.01-10 mg/kg): reduced Ro 15-4513 binding in hippocampus, without affecting cerebellum levels of Ro 15-4513; also recorded: blocked the binding of Rol54513 in the hippocampus but did not affect binding of Rol5413 in the cerebellum
GABAA α5 receptor occupancy (GABAA α5 receptor; 10 mg/kg): > 90%

COc1ccc2c(c1)-n1nncc1Cc1c(C#Cc3cnc(OC)c(F)c3)ncn1-2 [Compound 732]
Ki [1]: 100 to 1000 nM

COCc1nnc2n1Cc1c(C#Cc3cnc(OC)c(C(F)(F)F)c3)ncn1-c1ccc(OC)cc1-2 [Compound 731]
Ki [1]: 100 to 1000 nM

COc1ccc2c(c1)-n1nncc1Cc1c(C#Cc3cn(C)nc3OC)ncn1-2 [Compound 735]
Ki [1]: < 100 nM

COCc1nnc2n1Cc1c(C#Cc3cn(C)nc3OC)ncn1-c1ccc(Cl)cc1-2 [Compound 737]
Ki [1]: < 100 nM

COCc1nnn2c1Cc1c(C#Cc3cn(C)nc3OC)ncn1-c1ccc(Cl)cc1-2 [Compound 738]
Ki [1]: < 100 nM

CC1(C)CC(=O)c2c(SCCCO)sc(-c3nccs3)c2C1 [6,6 dimethyl-3-(3-hydroxypropyl)thio-1-(thiazol-2-yl)-6,7-dihydro-2-benzothiophen-4(5H)-one]
number of crossings of target annulus versus opposite annulus (aged-impaired (AI) rats [3]; [4]): crossed the “target annulus” more often
time in target annulus versus opposite annulus (aged-impaired (AI) rats [3]; [4]): spent significantly more time in the target annulus
time to find the escape platform (escape latency) (aged-impaired (AI) rats [3]; training block 1): about 24 seconds
time to find the escape platform (escape latency) (aged-impaired (AI) rats [3]; training block 4): about 9.6 seconds

COc1ncc(C#Cc2ncn3c2Cc2cnnn2-c2cc(Cl)ccc2-3)cc1F [Compound 734]
Ki [1]: < 100 nM

COCc1nnc2n1Cc1c(C#Cc3cn(C)nc3OC)ncn1-c1ccc(OC)cc1-2 [Compound 736]
Ki [1]: < 100 nM

CCOC(=O)c1ncn2c1CN(C)C(=O)c1cc(N=[N+]=[N-])ccc1-2 [Ro 15-4513]
levels of Ro 15-4513 in cerebellum (GABAA α5 receptor; tracer 1 μg/kg, after vehicle): 0.36 ± 0.02 ng/g
levels of Ro 15-4513 in hippocampus (GABAA α5 receptor; tracer 1 μg/kg, after vehicle): 1.93 ± 0.05 ng/g
levels of Ro 15-4513 in hippocampus compared with cerebellum (GABAA α5 receptor; tracer 1 μg/kg, after vehicle): > 5 fold
